Data published in paper PMC10743726, “Preclinical Evaluation of a Novel High-Affinity Radioligand [^99mTc]Tc-BQ0413 Targeting Prostate-Specific Membrane Antigen (PSMA)” (International Journal of Molecular Sciences, 2023).

Experiments:
[1] = test system: PSMA-positive PC3-pip xenografts; test: Biodistribution in PC3-pip tumor-bearing mice; conditions: 40 pmol/mouse
Procedure: All in vivo experiments were carried out on BALB/c nu/nu or NMRI mice purchased from Scanbur A/S (Sollentuna, Sweden). All animal studies were approved by the Ethics Committee for Animal Research in Uppsala (Sweden), following the national legislation on the protection of laboratory animals (permit 5.8.18-00473/2021, approved 26 February 2021). Prostate cancer xenografts expressing PSMA were established in BALB/c nu/nu mice via subcutaneous injection of PC3-pip cell suspension in PBS (10^7 cells/animal in 100 µL). For in vivo specificity control, 10^7 cells/animal PSMA-negative SKOV-3 or PC-3 cells were implanted. […] Four mice per data point were used in in vivo experiments; two mice per data point were used in SPECT/CT (^99mTc-labeled BQ0413) and PET/CT (^68Ga-labeled PSMA-11) imaging experiments.
Each mouse was intravenously injected with 40 pmol of [^99mTc]Tc-BQ0413 (60 kBq; mass of injected compound was adjusted with unlabeled tracer). The mice were euthanized after lethal intraperitoneal injection of ketamine/xylazine followed by exsanguination 1, 3, and 6 h pi. The organs of interest were collected, weighed, and measured for their activity content using the gamma counter. The uptake activity in organs was calculated as the percentage of injected activity per gram (%IA/g) for blood, salivary gland, lungs, liver, spleen, pancreas, stomach, small intestine, kidneys, tumor, muscle, and bone tissue and as %IA for the remaining carcass and the rest of the intestines with content.
Animals were euthanized, organs were collected, and activity uptake was measured according to the protocol described above.

PSMA = conditions: read-out: Equilibrium Dissociation Constant, KD; cited from earlier work

With `O=C([O-])CN(CCN(CC(=O)[O-])Cc1cc(CCC(=O)NCCCCCC(=O)NCCCC[C@H](NC(=O)N[C@@H](CCC(=O)O)C(=O)O)C(=O)O)ccc1[O-])Cc1cc(CCC(=O)O)ccc1[O-].[68Ga+3].[OH3+]` [[^68Ga]Ga-PSMA-11] the “Activity in GI tract (with content)” value ([1]; 1 h pi) was 1.6 ± 0.3 %IA/sample, the Tumor-to-blood ratio ([1]; 1 h pi) was 26 ± 9 and the Tumor-to-bone ratio ([1]; 1 h pi) was 34 ± 7. It also gave a Tumor-to-kidneys ratio ([1]; 1 h pi) of 0.09 ± 0.02, a Tumor-to-liver ratio ([1]; 1 h pi) of 30 ± 14 and a Tumor-to-lungs ratio ([1]; 1 h pi) of 7 ± 2. It also gave a Tumor-to-muscle ratio ([1]; 1 h pi) of 38 ± 11, a Tumor-to-pancreas ratio ([1]; 1 h pi) of 15 ± 3 and a Tumor-to-salivary gland ratio ([1]; 1 h pi) of 5 ± 1. It also gave a Tumor-to-small intestine ratio ([1]; 1 h pi) of 42 ± 14, a Tumor-to-spleen ratio ([1]; 1 h pi) of 0.7 ± 0.2 and a Tumor-to-stomach ratio ([1]; 1 h pi) of 29 ± 11. The Uptake in blood ([1]; 1 h pi) was 0.8 ± 0.1 %IA/g, the Uptake in bone ([1]; 1 h pi) was 0.60 ± 0.06 %IA/g and the Uptake in kidneys ([1]; 1 h pi) was 226 ± 40 %IA/g. It also gave an Uptake in liver ([1]; 1 h pi) of 0.7 ± 0.2 %IA/g, an Uptake in lungs ([1]; 1 h pi) of 3.2 ± 0.6 %IA/g and an Uptake in muscle ([1]; 1 h pi) of 0.54 ± 0.08 %IA/g. The Uptake in pancreas ([1]; 1 h pi) was 1.3 ± 0.2 %IA/g, the “Uptake in salivary gland” value ([1]; 1 h pi) was 4.4 ± 0.8 %IA/g and the “Uptake in small intestine” value ([1]; 1 h pi) was 0.5 ± 0.1 %IA/g. For the same compound, the Uptake in spleen ([1]; 1 h pi) was 28 ± 4 %IA/g, the Uptake in stomach ([1]; 1 h pi) was 0.8 ± 0.3 %IA/g and the Uptake in tumor ([1]; 1 h pi) was 20 ± 3 %IA/g. For the same compound, the Uptake in tumor ([1]; 3 h pi) was 20 ± 3 %IA/g and the Kd (PSMA) was 0.5 ± 0.2 nM.
For [^177Lu]Lu-PSMA-617, the Kd (PSMA) is given as 0.24 nM.
